Assay results taken from paper PMC5218480 (PLoS ONE, 2017).

Tested on: MV-4-11 cells
Test: Gene expression microarray analysis (Affymetrix PrimeView) and GSEA
Format: cell-based, human
Set-up: RFU PODN (11730768_x_at) / Fold change /veh PODN (11730768_x_at) / RFU LINC00158 (11744669_a_at) / Fold change /veh LINC00158 (11744669_a_at) / RFU DUSP10 (11751237_a_at) / Fold change /veh DUSP10 (11751237_a_at) / RFU ID3 (11757404_x_at) / Fold change /veh ID3 (11757404_x_at) / RFU PLEKHG5 (11737974_s_at) / Fold change /veh PLEKHG5 (11737974_s_at) / RFU LRRC4B (11730491_at) / Fold change /veh LRRC4B (11730491_at) / RFU GIMAP4 (11747438_a_at) / Fold change /veh GIMAP4 (11747438_a_at) / RFU KRT8 (11758183_x_at) / Fold change /veh KRT8 (11758183_x_at) / RFU CNN1 (11734310_a_at) / Fold change /veh CNN1 (11734310_a_at) / RFU VPS37D (11726825_at) / Fold change /veh VPS37D (11726825_at) / RFU C10orf10 (11716522_x_at) / Fold change /veh C10orf10 (11716522_x_at) / RFU KIR2DL2 /// KIR2DL4 /// KIR2DL5A /// KIR2DL5B /// KIR2DS1 /// KIR2DS2 /// KIR2DS3 /// KIR2DS4 /// KIR3DL3 /// KIR3DL3 /// KIR3DS1 (11738374_at) / Fold change /veh KIR2DL2 /// KIR2DL4 /// KIR2DL5A /// KIR2DL5B /// KIR2DS1 /// KIR2DS2 /// KIR2DS3 /// KIR2DS4 /// KIR3DL3 /// KIR3DL3 /// KIR3DS1 (11738374_at) / RFU C1QL1 (11718748_at) / Fold change /veh C1QL1 (11718748_at) / RFU TMPRSS4 (11747572_a_at) / Fold change /veh TMPRSS4 (11747572_a_at) / RFU HAMP (11756126_x_at) / Fold change /veh HAMP (11756126_x_at) / RFU RNFT2 (11725882_a_at) / Fold change /veh RNFT2 (11725882_a_at) / RFU NR4A2 (11747474_a_at) / Fold change /veh NR4A2 (11747474_a_at) / RFU ABCC12 (11746883_a_at) / Fold change /veh ABCC12 (11746883_a_at) / RFU TMEM136 (11760407_x_at) / Fold change /veh TMEM136 (11760407_x_at) / RFU CLDN22 /// WWC2 (11732394_at) / Fold change /veh CLDN22 /// WWC2 (11732394_at) / RFU HLA-DPB1 (11760878_x_at) / Fold change /veh HLA-DPB1 (11760878_x_at) / RFU SPINT1 (11716480_a_at) / Fold change /veh SPINT1 (11716480_a_at) / RFU GAP43 (11754022_s_at) / Fold change /veh GAP43 (11754022_s_at) / RFU A4GNT (11735810_at) / Fold change /veh A4GNT (11735810_at) / RFU PRB3 (11715151_x_at) / Fold change /veh PRB3 (11715151_x_at) / RFU TUBB4B (11761932_at) / Fold change /veh TUBB4B (11761932_at) / RFU CAPN14 (11732068_a_at) / Fold change /veh CAPN14 (11732068_a_at) / RFU TMCC2 (11721928_a_at) / Fold change /veh TMCC2 (11721928_a_at) / RFU IRGQ (11745062_a_at) / Fold change /veh IRGQ (11745062_a_at) / RFU FAM174B (11720279_a_at) / Fold change /veh FAM174B (11720279_a_at) / RFU TMPRSS4 (11748680_a_at) / Fold change /veh TMPRSS4 (11748680_a_at) / RFU FAM212B (11763350_a_at) / Fold change /veh FAM212B (11763350_a_at) / RFU PLEKHG5 (11743358_a_at) / Fold change /veh PLEKHG5 (11743358_a_at) / RFU ZSCAN30 (11745921_a_at) / Fold change /veh ZSCAN30 (11745921_a_at) / RFU CMKLR1 (11741424_a_at) / Fold change /veh CMKLR1 (11741424_a_at) / RFU LOC101060620 /// MAPK8IP1 (11723275_at) / Fold change /veh LOC101060620 /// MAPK8IP1 (11723275_at) / RFU SPTSSB (11747773_x_at) / Fold change /veh SPTSSB (11747773_x_at) / RFU PRSS12 (11739890_at) / Fold change /veh PRSS12 (11739890_at) / RFU BIN1 (11741810_x_at) / Fold change /veh BIN1 (11741810_x_at) / RFU WNT11 (11732464_a_at) / Fold change /veh WNT11 (11732464_a_at) / RFU C10orf10 (11716521_a_at) / Fold change /veh C10orf10 (11716521_a_at) / RFU C5orf56 (11738089_at) / Fold change /veh C5orf56 (11738089_at) / RFU CYB561 (11721691_x_at) / Fold change /veh CYB561 (11721691_x_at) / RFU ANKRD19P (11752326_a_at) / Fold change /veh ANKRD19P (11752326_a_at) / RFU OR2T12 /// OR2T33 /// OR2T8 (11738714_s_at) / Fold change /veh OR2T12 /// OR2T33 /// OR2T8 (11738714_s_at) / RFU VCAN (11748164_a_at) / Fold change /veh VCAN (11748164_a_at) / RFU JSRP1 (11732532_at) / Fold change /veh JSRP1 (11732532_at) / RFU KRTAP10-11 (11738290_x_at) / Fold change /veh KRTAP10-11 (11738290_x_at) / RFU MYO3A (11730013_a_at) / Fold change /veh MYO3A (11730013_a_at) / RFU EBF3 (11725865_a_at) / Fold change /veh EBF3 (11725865_a_at) / RFU CAMK2N1 (11719241_x_at) / Fold change /veh CAMK2N1 (11719241_x_at) / RFU C5orf56 (11738088_a_at) / Fold change /veh C5orf56 (11738088_a_at) / RFU OLFML3 (11715873_a_at) / Fold change /veh OLFML3 (11715873_a_at) / RFU LOC100653217 /// NTM (11731650_a_at) / Fold change /veh LOC100653217 /// NTM (11731650_a_at) / RFU MAPK11 (11762145_a_at) / Fold change /veh MAPK11 (11762145_a_at) / RFU FIZ1 (11724087_x_at) / Fold change /veh FIZ1 (11724087_x_at) / RFU OASL (11726364_x_at) / Fold change /veh OASL (11726364_x_at) / RFU SOX15 (11748057_x_at) / Fold change /veh SOX15 (11748057_x_at) / RFU CD79A (11719716_a_at) / Fold change /veh CD79A (11719716_a_at) / RFU HIST1H1D (11736915_at) / Fold change /veh HIST1H1D (11736915_at) / RFU CASKIN2 (11723855_a_at) / Fold change /veh CASKIN2 (11723855_a_at) / RFU LOC730098 (11760151_x_at) / Fold change /veh LOC730098 (11760151_x_at) / RFU OR4N2 (11742367_at) / Fold change /veh OR4N2 (11742367_at) / RFU PRRT2 (11749266_a_at) / Fold change /veh PRRT2 (11749266_a_at) / RFU SNX32 (11753110_a_at) / Fold change /veh SNX32 (11753110_a_at) / RFU CDHR5 (11726645_a_at) / Fold change /veh CDHR5 (11726645_a_at) / RFU RCAN1 (11760418_a_at) / Fold change /veh RCAN1 (11760418_a_at) / RFU FAM167A (11723789_a_at) / Fold change /veh FAM167A (11723789_a_at) / RFU FAM26E (11764081_at) / Fold change /veh FAM26E (11764081_at) / RFU ISYNA1 (11749810_s_at) / Fold change /veh ISYNA1 (11749810_s_at) / RFU ACY1 (11761880_at) / Fold change /veh ACY1 (11761880_at) / RFU 11764098_at / Fold change /veh 11764098_at / RFU SAMD14 (11745864_x_at) / Fold change /veh SAMD14 (11745864_x_at) / RFU NPB (11741838_a_at) / Fold change /veh NPB (11741838_a_at) / RFU TMPRSS6 (11731388_a_at) / Fold change /veh TMPRSS6 (11731388_a_at) / RFU KRTAP10-2 (11738614_at) / Fold change /veh KRTAP10-2 (11738614_at) / RFU ARHGAP8 /// PRR5-ARHGAP8 (11727945_x_at) / Fold change /veh ARHGAP8 /// PRR5-ARHGAP8 (11727945_x_at) / RFU KRTAP5-7 /// NADSYN1 (11734609_at) / Fold change /veh KRTAP5-7 /// NADSYN1 (11734609_at) / RFU RASL12 (11751679_a_at) / Fold change /veh RASL12 (11751679_a_at) / RFU CDKN2B (11736163_a_at) / Fold change /veh CDKN2B (11736163_a_at) / RFU PRF1 (11729649_at) / Fold change /veh PRF1 (11729649_at) / RFU, ZNF638 /// ZNF638-IT1 / Fold change vs veh, ZNF638 /// ZNF638-IT1 / RFU, PANK3 / Fold change vs veh, PANK3 / RFU, SH3YL1 / Fold change vs veh, SH3YL1 / RFU, ZEB2 / Fold change vs veh, ZEB2 / RFU, NRIP1 / Fold change vs veh, NRIP1 / RFU, PTTG1IP / Fold change vs veh, PTTG1IP / RFU, CAPN2 / Fold change vs veh, CAPN2 / RFU, MED14 / Fold change vs veh, MED14 / RFU, SNORA58 / Fold change vs veh, SNORA58 / RFU, C1orf63 / Fold change vs veh, C1orf63 / RFU, LRRFIP1 / Fold change vs veh, LRRFIP1 / RFU, NDUFAF7 / Fold change vs veh, NDUFAF7 / RFU, SLC12A2 / Fold change vs veh, SLC12A2 / RFU, IBTK / Fold change vs veh, IBTK / RFU, ESF1 / Fold change vs veh, ESF1 / Fold change vs veh, TMEM50B / RFU, TAOK1 / Fold change vs veh, TAOK1 / RFU, ACBD3 / Fold change vs veh, ACBD3 / RFU, TMA16 / Fold change vs veh, TMA16 / RFU, RWDD3 / Fold change vs veh, RWDD3 / RFU, BCAT1 / Fold change vs veh, BCAT1 / RFU, EDEM3 / Fold change vs veh, EDEM3 / RFU, TMEM33 / Fold change vs veh, TMEM33 / RFU, WDR75 / Fold change vs veh, WDR75 / RFU, AHCTF1 / Fold change vs veh, AHCTF1 / RFU, TFRC / Fold change vs veh, TFRC / RFU, ZDHHC17 / Fold change vs veh, ZDHHC17 / RFU, NOM1 / Fold change vs veh, NOM1 / RFU, ARL8B / Fold change vs veh, ARL8B / RFU, ZBTB11 / Fold change vs veh, ZBTB11 / RFU, TAMM41 / Fold change vs veh, TAMM41 / RFU, KIAA1704 /// LOC100996395 / Fold change vs veh, KIAA1704 /// LOC100996395 / RFU, ING1 / Fold change vs veh, ING1 / RFU, TRMT61B / Fold change vs veh, TRMT61B / RFU, FUBP3 / Fold change vs veh, FUBP3 / RFU, TP53 / Fold change vs veh, TP53 / RFU, TNKS2 / Fold change vs veh, TNKS2 / RFU, ZFP14 / Fold change vs veh, ZFP14 / RFU, ACTR2 / Fold change vs veh, ACTR2 / RFU, PPP3R1 / Fold change vs veh, PPP3R1 / RFU, PIK3R1 / Fold change vs veh, PIK3R1 / RFU, HNRNPA1 / Fold change vs veh, HNRNPA1 / RFU, RNF170 / Fold change vs veh, RNF170 / RFU, ZNF28 / Fold change vs veh, ZNF28 / RFU, RNGTT / Fold change vs veh, RNGTT / RFU, OGT / Fold change vs veh, OGT / RFU, BRD1 / Fold change vs veh, BRD1 / RFU, MARS / Fold change vs veh, MARS / RFU, ZNF655 / Fold change vs veh, ZNF655 / RFU, FAHD1 / Fold change vs veh, FAHD1 / RFU, BDP1 / Fold change vs veh, BDP1 / RFU, LRRCC1 / Fold change vs veh, LRRCC1 / RFU, ARID1A / Fold change vs veh, ARID1A / RFU, ZNF146 / Fold change vs veh, ZNF146 / RFU, ZNF330 / Fold change vs veh, ZNF330 / RFU, GPN3 / Fold change vs veh, GPN3 / RFU, C9orf123 / Fold change vs veh, C9orf123 / RFU, N4BP2L2 / Fold change vs veh, N4BP2L2 / RFU, ARFIP1 / Fold change vs veh, ARFIP1 / RFU, FAM179B / Fold change vs veh, FAM179B / RFU, BCL10 / Fold change vs veh, BCL10 / RFU, UHRF1BP1L / Fold change vs veh, UHRF1BP1L / RFU, BET1 / Fold change vs veh, BET1 / RFU, CNOT2 / Fold change vs veh, CNOT2 / RFU, ZNF268 / Fold change vs veh, ZNF268 / Fold change vs veh, ZNF507 / RFU, DGCR2 / Fold change vs veh, DGCR2 / RFU, WDSUB1 / Fold change vs veh, WDSUB1 / Fold change vs veh, HSP90B1 /// MIR3652 / RFU, ADSS / Fold change vs veh, ADSS / RFU, GK / Fold change vs veh, GK / RFU, ZNF148 / Fold change vs veh, ZNF148 / RFU, TAF9 / Fold change vs veh, TAF9 / RFU, SLC1A5 / Fold change vs veh, SLC1A5 / RFU, SLMO2 / Fold change vs veh, SLMO2 / RFU, ABCC4 / Fold change vs veh, ABCC4 / RFU, LOC101060439 /// RAP1B / Fold change vs veh, LOC101060439 /// RAP1B / RFU, RFX7 / Fold change vs veh, RFX7 / RFU, GTPBP10 / Fold change vs veh, GTPBP10 / RFU, CNEP1R1 / Fold change vs veh, CNEP1R1 / RFU, BIVM-ERCC5 /// ERCC5 / Fold change vs veh, BIVM-ERCC5 /// ERCC5 / RFU, ILF3 / Fold change vs veh, ILF3 / RFU 11762660_at / Fold change /veh 11762660_at / RFU VCAN (11757783_s_at) / Fold change /veh VCAN (11757783_s_at) / RFU DDX43 (11728927_at) / Fold change /veh DDX43 (11728927_at) / RFU KRT8 (11758188_x_at) / Fold change /veh KRT8 (11758188_x_at) / RFU NKD1 (11759106_at) / Fold change /veh NKD1 (11759106_at) / RFU SRD5A1 (11742802_a_at) / Fold change /veh SRD5A1 (11742802_a_at) / RFU TPSAB1 /// TPSB2 (11721975_s_at) / Fold change /veh TPSAB1 /// TPSB2 (11721975_s_at) / RFU GSTM3 (11746129_a_at) / Fold change /veh GSTM3 (11746129_a_at) / RFU IL23R (11737362_x_at) / Fold change /veh IL23R (11737362_x_at) / RFU TMEM51 (11727254_a_at) / Fold change /veh TMEM51 (11727254_a_at) / RFU PIWIL2 (11732686_x_at) / Fold change /veh PIWIL2 (11732686_x_at) / RFU ORM1 (11744905_x_at) / Fold change /veh ORM1 (11744905_x_at) / RFU CCDC152 (11743942_at) / Fold change /veh CCDC152 (11743942_at) / RFU ECM1 (11717891_a_at) / Fold change /veh ECM1 (11717891_a_at) / RFU IL23R (11748794_a_at) / Fold change /veh IL23R (11748794_a_at) / RFU TNFAIP8L3 (11732012_x_at) / Fold change /veh TNFAIP8L3 (11732012_x_at) / RFU MBOAT4 (11741988_at) / Fold change /veh MBOAT4 (11741988_at) / RFU 11764193_at / Fold change /veh 11764193_at / RFU TMEM53 (11763286_at) / Fold change /veh TMEM53 (11763286_at) / RFU MAGEB2 (11727129_at) / Fold change /veh MAGEB2 (11727129_at) / RFU TMEM200A (11744735_a_at) / Fold change /veh TMEM200A (11744735_a_at) / RFU CCDC152 (11751479_a_at) / Fold change /veh CCDC152 (11751479_a_at) / RFU FAM211A (11726209_a_at) / Fold change /veh FAM211A (11726209_a_at) / RFU RGS16 (11746705_a_at) / Fold change /veh RGS16 (11746705_a_at) / RFU VCAN (11755009_s_at) / Fold change /veh VCAN (11755009_s_at) / RFU RHOB (11743442_s_at) / Fold change /veh RHOB (11743442_s_at) / RFU RGS16 (11720943_a_at) / Fold change /veh RGS16 (11720943_a_at) / RFU RGS16 (11720944_at) / Fold change /veh RGS16 (11720944_at) / RFU, VPS4B / Fold change vs veh, VPS4B / RFU, CREB1 / Fold change vs veh, CREB1 / RFU, DNAJC13 / Fold change vs veh, DNAJC13 / RFU, GNAQ / Fold change vs veh, GNAQ / RFU, CDK5R1 / Fold change vs veh, CDK5R1 / RFU, ZRANB3 / Fold change vs veh, ZRANB3 / RFU, CUL4A / Fold change vs veh, CUL4A / RFU, CCNY / Fold change vs veh, CCNY / RFU, UFL1 / Fold change vs veh, UFL1 / RFU, COG3 / Fold change vs veh, COG3 / RFU, DIAPH2 / Fold change vs veh, DIAPH2 / RFU, SKA2 / Fold change vs veh, SKA2 / RFU, AFF3 / Fold change vs veh, AFF3 / RFU, LMF1 / Fold change vs veh, LMF1 / RFU, IPO11 / Fold change vs veh, IPO11 / RFU, DFFB / Fold change vs veh, DFFB / RFU, FOXP1 / Fold change vs veh, FOXP1 / RFU, CARD8 / Fold change vs veh, CARD8 / RFU, STRN3 / Fold change vs veh, STRN3 / RFU, ADK / Fold change vs veh, ADK / RFU, RASSF2 / Fold change vs veh, RASSF2 / RFU, WIPF1 / Fold change vs veh, WIPF1 / RFU, LARP1B / Fold change vs veh, LARP1B / RFU, RASA1 / Fold change vs veh, RASA1 / RFU, RB1 / Fold change vs veh, RB1 / RFU, PPFIA1 / Fold change vs veh, PPFIA1 / RFU, MAT2A / Fold change vs veh, MAT2A / RFU, CCT5 / Fold change vs veh, CCT5 / RFU, WDR92 / Fold change vs veh, WDR92 / RFU, CUX1 / Fold change vs veh, CUX1 / RFU, TTC7A / Fold change vs veh, TTC7A / RFU, TMEM135 / Fold change vs veh, TMEM135 / RFU, DEPTOR / Fold change vs veh, DEPTOR / RFU, CPM / Fold change vs veh, CPM / RFU, DNAJB6 / Fold change vs veh, DNAJB6 / RFU, CACNA2D3 / Fold change vs veh, CACNA2D3 / RFU, DTX4 / Fold change vs veh, DTX4 / RFU, TFCP2 / Fold change vs veh, TFCP2 / RFU, GMCL1 /// GMCL1P1 / Fold change vs veh, GMCL1 /// GMCL1P1 / RFU, AEBP2 / Fold change vs veh, AEBP2 / RFU, SNHG1 /// SNORD22 /// SNORD25 /// SNORD26 /// SNORD27 /// SNORD28 /// SNORD29 /// SNORD31 / Fold change vs veh, SNHG1 /// SNORD22 /// SNORD25 /// SNORD26 /// SNORD27 /// SNORD28 /// SNORD29 /// SNORD31 / Fold change (Aza/veh), C12orf56 (ProbeSet 11735607_a_at) / Fold change (ACY-1035/veh), C12orf56 (ProbeSet 11735607_a_at) / Fold change (Aza/veh), FGFR1OP (ProbeSet 11751329_s_at) / Fold change (ACY-1035/veh), FGFR1OP (ProbeSet 11751329_s_at) / Fold change (Aza/veh), VPS36 (ProbeSet 11739960_a_at) / Fold change (ACY-1035/veh), VPS36 (ProbeSet 11739960_a_at) / RFU SYPL1 (11715823_x_at) / Fold change /veh SYPL1 (11715823_x_at) / RFU IGFBP7 (11715501_s_at) / Fold change /veh IGFBP7 (11715501_s_at) / RFU REEP3 (11722064_at) / Fold change /veh REEP3 (11722064_at) / RFU IGLL1 (11728026_x_at) / Fold change /veh IGLL1 (11728026_x_at): dose or concentration left out as unconfirmed
Conditions: ProbeSet 11749477_a_at; LIST B

Nc1ncn([C@@H]2O[C@H](CO)[C@@H](O)[C@H]2O)c(=O)n1 [azacitidine]
RFU, EDEM3: 49.32 RFU
